Legend:
[1] = target: T1, Recombinant human integrin α5β1 (Homo sapiens, UniProt P05556+P08648); assay: Solid Phase Receptor Assay for α5β1 Function; conditions: binding to fibronectin-coated plate; read-out: α5β1 SPRA IC50
T1 construct: purchased R&D Systems 3230-A5
Procedure: Solid Phase Receptor Assay for α5β1 Function.
Wells were washed 3 times with 150 μL TBS+ and 150 μl of blocking buffer (TBS+ with 1% bovine serum albumin, Sigma A7906) were added. The plate was incubated for 1 hr at 37° C. and then washed 3× with TBS+ buffer. […] Compounds were diluted 1:100 into the integrin solution and then 50 μL added to empty wells of the washed fibronectin-coated plate according to a standard template with each sample repeated in triplicate. After incubation for two hours at room temperature, the plate was washed 3× with 150 μL of TBS+ buffer. To each well, 50 μL of biotinylated anti-α5 antibody (R&D Systems, BAF1864) at 0.5 ug/mL in TBS+/0.1% BSA were added and the plate covered and incubated for 1 hr at room temperature. After washing the plate 3× with 150 μL of TBS+ buffer, 50 μL of streptavidin-conjugated horseradish peroxidase (R&D Systems, DY998) diluted in TBS+ blocking buffer were added to the wells and the plate incubated for 20 min at room temperature. The plate was washed 3× with TBS+ buffer followed by 50 μL of room temperature TMB substrate (Sigma, T444) added to each well and the plate incubated for 20 min at room temperature. The reaction was optionally stopped with 25 μL of Stop Solution (Sigma S5689). Plates were read by colorimetric detection at 650 nm wavelength using a Tecan Safire II plate reader.

[2] = target: T2, Recombinant human integrin αvβ1 (Homo sapiens, UniProt P05556+P06756); assay: Solid Phase Receptor Assay for αvβ1 Function; conditions: binding to fibronectin-coated plate; read-out: αvβ1 SPRA IC50
T2 construct: purchased R&D Systems 6579-AV
T2 sequence (P06756 31-992 limits assumed): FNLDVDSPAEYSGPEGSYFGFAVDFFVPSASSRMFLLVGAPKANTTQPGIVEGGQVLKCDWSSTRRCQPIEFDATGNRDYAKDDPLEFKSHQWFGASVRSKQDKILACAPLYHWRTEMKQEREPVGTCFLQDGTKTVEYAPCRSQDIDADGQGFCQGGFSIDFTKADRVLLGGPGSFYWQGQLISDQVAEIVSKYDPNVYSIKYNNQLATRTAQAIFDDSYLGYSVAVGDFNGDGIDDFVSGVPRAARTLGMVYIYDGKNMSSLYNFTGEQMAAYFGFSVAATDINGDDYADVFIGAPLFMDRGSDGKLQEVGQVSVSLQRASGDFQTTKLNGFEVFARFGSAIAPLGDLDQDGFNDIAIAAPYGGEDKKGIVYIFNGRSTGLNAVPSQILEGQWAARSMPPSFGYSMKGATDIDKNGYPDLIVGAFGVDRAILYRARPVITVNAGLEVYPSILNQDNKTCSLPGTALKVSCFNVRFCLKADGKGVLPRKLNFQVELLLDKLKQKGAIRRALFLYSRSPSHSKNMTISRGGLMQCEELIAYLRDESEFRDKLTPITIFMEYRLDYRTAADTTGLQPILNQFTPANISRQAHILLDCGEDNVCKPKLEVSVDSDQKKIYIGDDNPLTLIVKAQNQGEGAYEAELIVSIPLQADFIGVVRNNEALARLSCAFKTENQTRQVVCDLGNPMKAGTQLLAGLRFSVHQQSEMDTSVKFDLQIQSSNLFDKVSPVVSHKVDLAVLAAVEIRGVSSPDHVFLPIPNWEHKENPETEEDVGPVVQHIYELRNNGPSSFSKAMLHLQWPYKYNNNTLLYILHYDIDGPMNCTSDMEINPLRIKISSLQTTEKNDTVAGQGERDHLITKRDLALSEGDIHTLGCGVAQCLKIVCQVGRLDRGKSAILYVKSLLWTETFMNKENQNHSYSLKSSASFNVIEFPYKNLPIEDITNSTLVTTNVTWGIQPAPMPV
T2 sequence (P05556 21-728 limits assumed): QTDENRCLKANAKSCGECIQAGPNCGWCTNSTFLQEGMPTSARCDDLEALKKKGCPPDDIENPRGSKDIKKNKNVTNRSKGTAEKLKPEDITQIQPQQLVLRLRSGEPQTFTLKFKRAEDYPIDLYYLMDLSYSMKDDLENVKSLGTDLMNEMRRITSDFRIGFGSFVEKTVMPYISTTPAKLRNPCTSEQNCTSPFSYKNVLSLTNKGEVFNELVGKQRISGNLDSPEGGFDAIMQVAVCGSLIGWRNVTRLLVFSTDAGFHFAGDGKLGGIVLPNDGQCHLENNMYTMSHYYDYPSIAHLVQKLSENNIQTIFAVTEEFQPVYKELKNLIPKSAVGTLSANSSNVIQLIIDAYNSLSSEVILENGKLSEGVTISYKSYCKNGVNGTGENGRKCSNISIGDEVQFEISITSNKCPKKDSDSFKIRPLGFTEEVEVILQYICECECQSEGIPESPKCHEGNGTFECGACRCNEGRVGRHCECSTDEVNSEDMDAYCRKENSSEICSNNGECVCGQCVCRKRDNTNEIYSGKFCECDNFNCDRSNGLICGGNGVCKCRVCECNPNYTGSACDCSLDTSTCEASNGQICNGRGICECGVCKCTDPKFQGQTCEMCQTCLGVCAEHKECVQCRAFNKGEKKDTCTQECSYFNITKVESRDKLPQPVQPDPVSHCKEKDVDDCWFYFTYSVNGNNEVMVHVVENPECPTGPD
Procedure: Solid Phase Receptor Assay for αvβ1 Function.
Wells were washed 3 times with 150 μl TBS+ and 150 μL of blocking buffer (TBS+ with 1% bovine serum albumin, Sigma A7906) were added. The plate was incubated for 1 hr at 37° C. and then washed 3× with TBS+ buffer. […] Compounds were diluted 1:100 into the integrin solution and 50 μL added to empty wells of the washed fibronectin-coated plate according to a standard template with each sample repeated in triplicate. After incubation for two hours at room temperature, the plate was washed 3× with 150 μL of TBS+ buffer. To each well, 50 μL of biotinylated anti-αv antibody (R&D Systems, BAF1219) at 1 μg/mL in TBS+/0.1% BSA were added and the plate covered and incubated for 1 hr at room temperature. After washing the plate 3× with 150 μL of TBS+ buffer, 50 μL of streptavidin-conjugated horseradish peroxidase (R&D Systems, DY998) diluted in TBS+ blocking buffer were added to the wells and the plate incubated for 20 min at room temperature. The plate was washed 3× with TBS+ buffer followed by 50 μL of TMB substrate (Sigma, T4444) added to each well and the plate incubated for 20 min at room temperature. The reaction was optionally stopped with 25 μL of Stop Solution (Sigma S5689). Plates were read by colorimetric detection at 650 nm wavelength using a Tecan Safire II plate reader.

[3] = target: T3, Recombinant human integrin αvβ3 (Homo sapiens, UniProt P05106+P06756); assay: Solid Phase Receptor Assay for αvβ3 Function; conditions: binding to vitronectin-coated plate; read-out: αvβ3 SPRA IC50
T3 construct: purchased R&D Systems 3050-AV
T3 sequence (P06756 31-992 limits assumed): as the sequence (P06756 31-992 limits assumed) above
T3 sequence (P05106 27-718 limits assumed): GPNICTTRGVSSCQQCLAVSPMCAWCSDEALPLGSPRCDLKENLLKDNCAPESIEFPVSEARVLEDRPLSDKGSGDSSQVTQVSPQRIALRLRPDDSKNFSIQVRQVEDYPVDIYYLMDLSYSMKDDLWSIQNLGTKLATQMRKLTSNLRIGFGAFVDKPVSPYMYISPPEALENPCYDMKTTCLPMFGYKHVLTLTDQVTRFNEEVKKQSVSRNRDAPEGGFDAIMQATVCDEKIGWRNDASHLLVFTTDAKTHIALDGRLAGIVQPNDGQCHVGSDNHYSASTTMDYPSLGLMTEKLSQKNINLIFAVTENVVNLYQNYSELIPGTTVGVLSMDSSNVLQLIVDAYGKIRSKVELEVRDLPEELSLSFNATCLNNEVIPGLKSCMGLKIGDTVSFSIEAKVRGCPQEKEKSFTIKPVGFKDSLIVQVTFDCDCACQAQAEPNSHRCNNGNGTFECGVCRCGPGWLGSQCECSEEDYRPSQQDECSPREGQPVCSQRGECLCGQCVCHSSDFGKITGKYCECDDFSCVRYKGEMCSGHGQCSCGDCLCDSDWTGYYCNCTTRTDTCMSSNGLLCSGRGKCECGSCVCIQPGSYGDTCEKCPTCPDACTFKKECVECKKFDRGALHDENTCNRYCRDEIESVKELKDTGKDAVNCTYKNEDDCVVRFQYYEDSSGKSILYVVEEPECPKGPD
Procedure: Solid Phase Receptor Assay for αvβ3 Function.
Wells were washed 3 times with 150 μL TBS+ and 150 μL of blocking buffer (TBS+ with 1% bovine serum albumin, Sigma A7906) were added. The plate was incubated for 1 hr at 37° C. and then washed 3× with TBS+ buffer. […] Compounds were diluted 1:100 into the integrin solution and then 50 μL added to empty wells of the washed vitronectin-coated plate according to a standard template with each sample repeated in triplicate. After incubation for two hours at room temperature, the plate was washed 3× with 150 μL of TBS+ buffer. To each well, 50 μL of biotinylated anti-αv antibody (R&D Systems, BAF1219) at 0.5 μg/mL in TBS+/0.1% BSA were added and the plate covered and incubated for 1 hr at room temperature. After washing the plate 3× with 150 μL of TBS+ buffer, 50 μL of streptavidin-conjugated horseradish peroxidase (R&D Systems, DY998) diluted in TBS+ blocking buffer were added to the wells and the plate incubated for 20 min at room temperature. The plate was washed 3× with TBS+ buffer followed by 50 μL of TMB substrate (Sigma, T4444) added to each well and the plate was incubated for 20 min at room temperature. The reaction was optionally stopped with 25 μL of Stop Solution (Sigma, S5689). Plates were read by colorimetric detection at 650 nm wavelength using a Tecan S afire II plate reader.

[4] = target: T4, Recombinant human integrin αvβ6 (Homo sapiens, UniProt P06756+P18564); assay: Solid Phase Receptor Assay for αvβ6 Function; conditions: binding to LAP-coated plate; read-out: αvβ6 SPRA IC50
T4 construct: purchased R&D Systems 3817-AV
T4 sequence (P06756 31-992 limits assumed): as the sequence (P06756 31-992 limits assumed) above
T4 sequence (P18564 22-707 limits assumed): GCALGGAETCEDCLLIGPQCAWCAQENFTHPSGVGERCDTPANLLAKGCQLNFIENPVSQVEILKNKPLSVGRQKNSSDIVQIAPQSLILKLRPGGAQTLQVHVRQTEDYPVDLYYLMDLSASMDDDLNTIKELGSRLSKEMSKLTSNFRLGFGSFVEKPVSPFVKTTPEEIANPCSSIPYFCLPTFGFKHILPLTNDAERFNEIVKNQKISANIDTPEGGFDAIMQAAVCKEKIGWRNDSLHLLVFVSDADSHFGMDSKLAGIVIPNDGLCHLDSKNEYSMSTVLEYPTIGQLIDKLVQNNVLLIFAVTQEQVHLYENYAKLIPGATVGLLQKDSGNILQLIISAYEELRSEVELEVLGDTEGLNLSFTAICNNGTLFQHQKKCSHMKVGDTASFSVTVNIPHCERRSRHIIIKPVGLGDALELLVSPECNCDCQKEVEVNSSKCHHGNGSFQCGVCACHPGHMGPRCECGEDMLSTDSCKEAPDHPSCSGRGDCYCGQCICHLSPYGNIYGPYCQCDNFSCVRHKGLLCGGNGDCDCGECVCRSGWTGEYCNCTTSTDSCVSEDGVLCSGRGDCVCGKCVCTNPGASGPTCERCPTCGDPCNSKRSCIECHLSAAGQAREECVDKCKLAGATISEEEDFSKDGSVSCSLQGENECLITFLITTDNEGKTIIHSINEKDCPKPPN
Procedure: Solid Phase Receptor Assay for αvβ6 Function.
Wells were washed 3 times with 150 μL TBS+, and 150 μL of blocking buffer (TBS+ with 1% bovine serum albumin, Sigma A7906) were added. The plate was incubated for 1 hr at 37° C., and then washed 3× with TBS+ buffer. […] Compounds were diluted 1:100 into the integrin solution and then 50 μL added to empty wells of the washed LAP-coated plate according to a standard template with each sample repeated in triplicate. After incubation for two hours at room temperature, the plate was washed 3× with 150 μL of TBS+ buffer. To each well, 50 μL of biotinylated anti-αv antibody (R&D Systems, BAF1219) at 0.5 μg/mL in TBS+/0.1% BSA were added and the plate was covered and incubated for 1 hr at room temperature. After washing the plate 3× with 150 μL of TBS+ buffer, 50 μL of streptavidin-conjugated horseradish peroxidase (R&D Systems, DY998) diluted in TBS+ blocking buffer were added to the wells and the plate incubated for 20 min at room temperature. The plate was washed 3× with TBS+ buffer followed by 50 μL of TMB substrate (Sigma T4444) added to each well and the plate incubated for 20 min at room temperature. The reaction was optionally stopped with 25 μL of Stop Solution (Sigma S5689). Plates were read by colorimetric detection at 650 nm wavelength using a Tecan Safire II plate reader.

T1 sequence (P08648 42-995 limits assumed): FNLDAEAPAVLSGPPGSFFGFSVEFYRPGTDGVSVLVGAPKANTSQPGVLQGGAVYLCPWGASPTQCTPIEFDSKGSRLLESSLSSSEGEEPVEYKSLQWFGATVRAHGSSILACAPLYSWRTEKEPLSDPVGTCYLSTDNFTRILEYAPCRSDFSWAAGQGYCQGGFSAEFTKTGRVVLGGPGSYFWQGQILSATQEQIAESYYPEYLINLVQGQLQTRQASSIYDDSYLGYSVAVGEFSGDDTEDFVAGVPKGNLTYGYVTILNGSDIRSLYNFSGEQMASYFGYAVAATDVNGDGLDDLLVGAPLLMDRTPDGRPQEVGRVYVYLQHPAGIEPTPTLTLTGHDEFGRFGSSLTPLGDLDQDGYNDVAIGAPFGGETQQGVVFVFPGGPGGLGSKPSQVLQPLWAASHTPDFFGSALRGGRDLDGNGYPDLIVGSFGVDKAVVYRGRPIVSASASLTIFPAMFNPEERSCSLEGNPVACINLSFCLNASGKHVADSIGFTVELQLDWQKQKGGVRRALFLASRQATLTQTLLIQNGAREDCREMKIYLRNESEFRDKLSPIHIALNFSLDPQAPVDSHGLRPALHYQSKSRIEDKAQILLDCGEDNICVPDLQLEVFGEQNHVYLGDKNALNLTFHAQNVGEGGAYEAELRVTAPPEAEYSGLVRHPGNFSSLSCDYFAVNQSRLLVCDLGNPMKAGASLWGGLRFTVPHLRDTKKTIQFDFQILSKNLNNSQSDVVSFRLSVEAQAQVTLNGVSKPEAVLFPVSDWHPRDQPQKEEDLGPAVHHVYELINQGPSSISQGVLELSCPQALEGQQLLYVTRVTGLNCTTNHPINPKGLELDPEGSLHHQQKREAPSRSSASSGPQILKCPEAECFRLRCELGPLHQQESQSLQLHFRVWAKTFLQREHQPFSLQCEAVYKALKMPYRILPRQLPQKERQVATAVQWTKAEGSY
T1 sequence (P05556 21-728 limits assumed): as the sequence (P05556 21-728 limits assumed) above

Row | SMILES | IC50 [1] [nM] | IC50 [2] [nM] | IC50 [3] [nM] | IC50 [4] [nM]
1 | COCC(C)(C)c1cc(Cl)cc([C@H](CC(=O)O)NC(=O)CNC(=O)c2cc(O)cc(NC3=NCC(O)CN3)c2)c1 (stereo partly drawn) [Example 14, (3S)-3-(3-chloro-5-(1-methoxy-2-methylpropan-2-yl)phenyl)-3-(2-(3-hydroxy-5-((5-hydroxy-1,4,5,6-tetrahydropyrimidin-2-yl)amino)benzamido)acetamido)propanoic acid] | 0.2 | 2.4 | 1.7 | 0.4
2 | CC(C)(CO)c1cc(Cl)cc([C@H](CC(=O)O)NC(=O)CNC(=O)c2cc(O)cc(NC3=NCC(O)CN3)c2)c1 (stereo partly drawn) [Example 15, (3S)-3-(3-chloro-5-(1-hydroxy-2-methylpropan-2-yl)phenyl)-3-(2-(3-hydroxy-5-((5-hydroxy-1,4,5,6-tetrahydropyrimidin-2-yl)amino)benzamido)acetamido)propanoic acid] | 0.4 | 2.9 | 3.3 | 0.4
3 | COCC1(c2cc(Cl)cc([C@H](CC(=O)O)NC(=O)CNC(=O)c3cc(O)cc(NC4=NCC(O)CN4)c3)c2)CCOCC1 (stereo partly drawn) [Example 16, (3S)-3-(3-chloro-5-(4-(Methoxymethyl)tetrahydro-2H-pyran-4-yl)phenyl)-3-(2-(3-hydroxy-5-((5-hydroxy-1,4,5,6-tetrahydropyrimidin-2-yl)amino)benzamido)acetamido)propanoic acid] | 0.5 | 3.3 | 1.7 | 0.5
4 | O=C(O)C[C@H](NC(=O)CNC(=O)c1cc(O)cc(NC2=NCC(O)CN2)c1)c1cc(Cl)cc(C2(CO)CCOCC2)c1 (stereo partly drawn) [Example 17, (3S)-3-(3-chloro-5-(4-(hydroxymethyl)tetrahydro-2H-pyran-4-yl)phenyl)-3-(2-(3-hydroxy-5-((5-hydroxy-1,4,5,6-tetrahydropyrimidin-2-yl)amino)benzamido)acetamido)propanoic acid] | 0.4 | 3 | 4 | 0.5
5 | CC(C)(C)c1cc(-c2cccnc2)cc([C@H](CC(=O)O)NC(=O)CNC(=O)c2cc(O)cc(NC3=NCC(O)CN3)c2)c1 (stereo partly drawn) [Example 18, (3S)-3-(3-(tert-butyl)-5-(pyridin-3-yl)phenyl)-3-(2-(3-hydroxy-5-((5-hydroxy-1,4,5,6-tetrahydropyrimidin-2-yl)amino)benzamido)acetamido)propanoic acid] | 0.4 | 3.4 | 14.5 | 0.6
6 | CC(C)(C)c1cc(-c2cncnc2)cc([C@H](CC(=O)O)NC(=O)CNC(=O)c2cc(O)cc(NC3=NCC(O)CN3)c2)c1 (stereo partly drawn) [Example 19, (3S)-3-(3-(tert-butyl)-5-(pyrimidin-5-yl)phenyl)-3-(2-(3-hydroxy-5-((5-hydroxy-1,4,5,6-tetrahydropyrimidin-2-yl)amino)benzamido)acetamido)propanoic acid] | 0.4 | 4.1 | 8.8 | 0.7
7 | O=C(O)C[C@H](NC(=O)CNC(=O)c1cc(O)cc(NC2=NCC(O)CN2)c1)c1cc(Cl)cc(C2(CF)CCOCC2)c1 (stereo partly drawn) [Example 20, (3S)-3-(3-chloro-5-(4-(fluoromethyl)tetrahydro-2H-pyran-4-yl)phenyl)-3-(2-(3-hydroxy-5-((5-hydroxy-1,4,5,6-tetrahydropyrimidin-2-yl)amino)benzamido)acetamido)propanoic acid] | 2.4 | 4.9 | 3.7 | 1.4
